Reference: ChEMBL document CHEMBL3885881, “DrugMatrix”

Organism: Rattus norvegicus
Assay: DrugMatrix - Regimen: Daily Repeat
Assay type: toxicity, organism-based, Sprague-Dawley
Set-up: regimen Daily Repeat, gender Male, age 6-8 weeks
Settings: in vivo, po, route oral GAVAGE, vehicle .5 % CMC; for ABSOLUTE BASOPHIL / ABSOLUTE EOSINOPHIL / ABSOLUTE LYMPHOCYTE / ABSOLUTE MONOCYTE / ABSOLUTE SEGMENTED NEUTROPHIL / BASOPHIL / EOSINOPHIL / ERYTHROCYTE COUNT / HEMATOCRIT / HEMOGLOBIN / LEUKOCYTE COUNT / LYMPHOCYTE / MEAN CORPUSCULAR HEMOGLOBIN / MEAN CORPUSCULAR HEMOGLOBIN CONCENTRATION / MEAN CORPUSCULAR VOLUME / MONOCYTE / NEUTROPHIL / NUCLEATED RED BLOOD CELLS / PLATELET COUNT: tissue Blood; for ALANINE AMINOTRANSFERASE / ALBUMIN / ALKALINE PHOSPHATASE / ASPARTATE AMINOTRANSFERASE / BLOOD UREA NITROGEN / CARBON DIOXIDE / CHLORIDE / CHOLESTEROL / CREATINE PHOSPHOKINASE / CREATININE / GLUCOSE / LACTATE DEHYDROGENASE / LIPASE / PHOSPHORUS / POTASSIUM / SODIUM / TOTAL BILIRUBIN / TOTAL PROTEIN / URIC ACID: tissue Plasma
[1] = 0 mg/kg, 72 h, dose level Control, time 3 day
[2] = 0 mg/kg, 120 h, dose level Control, time 5 day
[3] = 15 mg/kg, 72 h, dose level Low, time 3 day

## COC(=O)c1ccc(O)cc1 [METHYLPARABEN]
[1]
  ABSOLUTE BASOPHIL: 0 CELLS/uL
  ABSOLUTE EOSINOPHIL: 0 CELLS/uL
  ABSOLUTE LYMPHOCYTE: 10913.67 CELLS/uL
  ABSOLUTE MONOCYTE: 85.33 CELLS/uL
  ABSOLUTE SEGMENTED NEUTROPHIL: 1401 CELLS/uL
  BASOPHIL: 0%
  EOSINOPHIL: 0%
  ERYTHROCYTE COUNT: 5.57 x10E6/uL
  HEMATOCRIT: 35.58%
  HEMOGLOBIN: 13.8 G/DL
  LEUKOCYTE COUNT: 12.4 x10E3/uL
  LYMPHOCYTE: 88%
  MEAN CORPUSCULAR HEMOGLOBIN: 24.78 pg
  MEAN CORPUSCULAR HEMOGLOBIN CONCENTRATION: 38.82 G/DL
  MEAN CORPUSCULAR VOLUME: 63.88 fL
  MONOCYTE: 0.67%
  NEUTROPHIL: 11.33%
  NUCLEATED RED BLOOD CELLS: 0 /100WBC
  PLATELET COUNT: 1162.33 x10E3/uL
  ALANINE AMINOTRANSFERASE: 53 u/L
  ALBUMIN: 4.17 G/DL
  ALKALINE PHOSPHATASE: 374.5 u/L
  ASPARTATE AMINOTRANSFERASE: 89.5 u/L
  BLOOD UREA NITROGEN: 16.33 mg/dL
  CARBON DIOXIDE: 29.17 mmol/L
  CHLORIDE: 97.67 MEQ/L
  CHOLESTEROL: 77 mg/dL
  CREATINE PHOSPHOKINASE: 464.83 u/L
  CREATININE: 0.14 mg/dL
  GLUCOSE: 164 mg/dL
  LACTATE DEHYDROGENASE: 155.5 u/L
  LIPASE: 9.17 u/L
  PHOSPHORUS: 12.4 mg/dL
  POTASSIUM: 6.91 MEQ/L
  SODIUM: 141.47 MEQ/L
  TOTAL BILIRUBIN: 0.2 mg/dL
  TOTAL PROTEIN: 5.95 G/DL
  URIC ACID: 1.72 mg/dL
[2]
  ABSOLUTE BASOPHIL: 0 CELLS/uL
  ABSOLUTE EOSINOPHIL: 20.5 CELLS/uL
  ABSOLUTE LYMPHOCYTE: 13871.67 CELLS/uL
  ABSOLUTE MONOCYTE: 60.5 CELLS/uL
  ABSOLUTE SEGMENTED NEUTROPHIL: 980.67 CELLS/uL
  BASOPHIL: 0%
  EOSINOPHIL: 0.17%
  ERYTHROCYTE COUNT: 5.65 x10E6/uL
  HEMATOCRIT: 35.63%
  HEMOGLOBIN: 14.08 G/DL
  LEUKOCYTE COUNT: 14.93 x10E3/uL
  LYMPHOCYTE: 92.83%
  MEAN CORPUSCULAR HEMOGLOBIN: 24.97 pg
  MEAN CORPUSCULAR HEMOGLOBIN CONCENTRATION: 39.55 G/DL
  MEAN CORPUSCULAR VOLUME: 63.13 fL
  MONOCYTE: 0.33%
  NEUTROPHIL: 6.67%
  NUCLEATED RED BLOOD CELLS: 0 /100WBC
  PLATELET COUNT: 1248.17 x10E3/uL
  ALANINE AMINOTRANSFERASE: 45.17 u/L
  ALBUMIN: 4.27 G/DL
  ALKALINE PHOSPHATASE: 405.67 u/L
  ASPARTATE AMINOTRANSFERASE: 74.17 u/L
  BLOOD UREA NITROGEN: 15.5 mg/dL
  CARBON DIOXIDE: 30.17 mmol/L
  CHLORIDE: 100.67 MEQ/L
  CHOLESTEROL: 57 mg/dL
  CREATINE PHOSPHOKINASE: 239.5 u/L
  CREATININE: 0.17 mg/dL
  GLUCOSE: 165.67 mg/dL
  LACTATE DEHYDROGENASE: 90.5 u/L
  LIPASE: 8.83 u/L
  PHOSPHORUS: 12.32 mg/dL
  POTASSIUM: 7.03 MEQ/L
  SODIUM: 142.65 MEQ/L
  TOTAL BILIRUBIN: 0.18 mg/dL
  TOTAL PROTEIN: 6.03 G/DL
  URIC ACID: 1.98 mg/dL
[3]
  ABSOLUTE BASOPHIL: 0 CELLS/uL
  ABSOLUTE EOSINOPHIL: 0 CELLS/uL
  ABSOLUTE LYMPHOCYTE: 13173.33 CELLS/uL
  ABSOLUTE MONOCYTE: 95.67 CELLS/uL
  ABSOLUTE SEGMENTED NEUTROPHIL: 1364.33 CELLS/uL
  BASOPHIL: 0%
  EOSINOPHIL: 0%
  ERYTHROCYTE COUNT: 5.6 x10E6/uL
  HEMATOCRIT: 37.1%
  HEMOGLOBIN: 14.57 G/DL
  LEUKOCYTE COUNT: 14.63 x10E3/uL
  LYMPHOCYTE: 90%
  MEAN CORPUSCULAR HEMOGLOBIN: 26.03 pg
  MEAN CORPUSCULAR HEMOGLOBIN CONCENTRATION: 39.27 G/DL
  MEAN CORPUSCULAR VOLUME: 66.23 fL
  MONOCYTE: 0.67%
  NEUTROPHIL: 9.33%
  NUCLEATED RED BLOOD CELLS: 0.67 /100WBC
  PLATELET COUNT: 1171 x10E3/uL
  ALANINE AMINOTRANSFERASE: 56.67 u/L
  ALBUMIN: 4.2 G/DL
  ALKALINE PHOSPHATASE: 324 u/L
  ASPARTATE AMINOTRANSFERASE: 86 u/L
  BLOOD UREA NITROGEN: 16.33 mg/dL
  CARBON DIOXIDE: 26.67 mmol/L
  CHLORIDE: 98.67 MEQ/L
  CHOLESTEROL: 78 mg/dL
  CREATINE PHOSPHOKINASE: 194 u/L
  CREATININE: 0.14 mg/dL
  GLUCOSE: 149.67 mg/dL
  LACTATE DEHYDROGENASE: 120 u/L
  LIPASE: 9.33 u/L
  PHOSPHORUS: 14.03 mg/dL
  POTASSIUM: 6.83 MEQ/L
  SODIUM: 143.63 MEQ/L
  TOTAL BILIRUBIN: 0.23 mg/dL
  TOTAL PROTEIN: 5.9 G/DL
  URIC ACID: 1.83 mg/dL
